Laboratory results from patent publication US20080076824A1, “Compounds That Inhibit Replication Of Human Immunodeficiency Virus” (priority 2004, published 2008).
“And” between values parts separate entries of the source, which are not always exact repeats. Identical values can stand only once. Counter-ions that a name gives are not always drawn. Like-named read-outs stand apart in the source and are kept apart here. Residues, ends and D or L forms follow the SMILES beside them.

Assays:
[1] = Cytotoxicity (CC50) in MT-4 cells; type: cell-based; conditions: human, MT-4 cells
in vitro = conditions: human
[2] = Microdose study of 14C-AlphaHGA in healthy volunteers, urine pharmacokinetics (AMS); type: in vivo, human; conditions: for cumulative recovery of the dose in the urine over 24 hr: range; for AUCTmax / AUClast / Dlast / Dmax / Tmax / Tfirst / Tlast: urine
Method: In this example, the pharmacokinetics (PK) and oral bioavailability of AlphaHGA in adult healthy volunteers following a single ‘microdose’ in a sequence-randomized, cross-over study design (two periods 7 days apart) was determined. Clinical experiments were conducted with low-level radiolabelled (^14C) AlphaHGA administered intravenously (IV) orally (PO) with serial blood and urine samples were collected for concentration analysis utilizing accelerator mass spectrometry (AMS).
Accordingly, eight subjects were enrolled into a single dose cross-over study. The subjects were randomly assigned to one of two administration sequences. Subjects that were assigned to sequence 1 received AlphaHGA as an oral preparation first (Period 1) followed by the intravenous (IV) preparation 1 week later (Period 2). Subjects assigned to sequence 2 received AlphaHGA as an intravenous preparation first followed by the oral preparation 1 week later. Four subjects were assigned to sequence 1 and four subjects were assigned to sequence 2.
For both oral and IV doses subjects were administered 100 nCi (3.7 Kbq) of alphaHGA, which was determined to contain 1.602888×10ˆ6 fmol of ^14C. The specific activity of each dose was 46.619 MBq/mol (or 1.260 mCi/mol). A stock blend of ^14C-labelled alphaHGA was produced prior to the first study period. The actual formulations used for dosing were prepared on the morning prior to each study period. The infusion was a single bolus injection with both the infusion and flush were completed in less than 30 seconds.
Urine samples were collected at pre-dose and during post-dose time intervals: 0 to 4, 4 to 8, 8 to 12, 12 to 16, and 16 to 24 hours. All urine collections were obtained. Cumulative urine voidings for the specified time intervals were collected in standard collection containers without additional modifiers or preservatives
Plasma specimens (30 μL) were analyzed directly via the combustive procedure without further chemical manipulation. For the purposes of calculating ^14C concentration per volume of plasma, a general carbon content of 45% (dry mass) was applied. The urine was mixed with equal volumes (0.5 mL) of a sucrose carbon diluent solution (200 g/L) and mixed by inversion in a disposable polypropylene centrifuge tube. A 20-μL sample was graphitized for AMS analysis according to standard procedures. The mass fraction of the urine represented in the measured sample was inverted and multipled by the ^14C contents above background derived from the AMS measurement to calculate the ^14C content in the total urine void. A density value of 1 g/mL for urine was assumed to calculate its volume from the recorded masses.
Area-under-the-plasma-concentration-time curve from time zero to the last quantified concentration (AUClast), was calculated by the linear trapezoidal method from the observed concentrations. Area-under-the concentration-time curve from time zero to infinity (AUCinf) was obtained as the sum of AUClast and the extrapolation term Clast/λz, where Clast denotes the last observed quantifiable concentration. The percentage of AUCinf obtained by extrapolation (AUC % extrap) was calculated as [(AUCinf−AUClast)/AUCinf]*100. It should be noted that the area for the IV plasma data will result in an underestimation of the AUC in the first trapezoid because the concentration at time 0 was set to 0 and there is not reasonable way to impute a value at time 0. Area-under-the-concentration-time curve from time zero to the maximum concentration (AUCTmax) was calculated by the linear trapezoidal method. […]. This approach was necessary given the nature of the parameters requested by the sponsor.
Values for the following PK parameters were estimated from urine levels of AlphaHGA during the various time intervals. […]

MT-4 cells = experiment: Cytotoxicity (CC50) in MT-4 cells; type: cell-based
CEM cells [3] = tested on: CEM cells
[4] = target: glycine oxidase from Bacillus subtilis (Bacillus subtilis, UniProt O31616)
[5] = Cytotoxicity / cell proliferation in CEM cells; conditions: human
CEM cells [6] = experiment: Cytotoxicity / cell proliferation in CEM cells
[7] = route iv, individual subjects 1-8, period 1 or 2, hydrochloride, dosing period 1
[8] = route iv, individual subjects 1-8, period 1 or 2, hydrochloride, dosing period 2
[9] = route po, individual subjects 1-8, period 1 or 2, dosing period 1
[10] = route po, individual subjects 1-8, period 1 or 2, dosing period 2
[11] = route po, individual subjects 1-8, period 1 or 2, hydrochloride, dosing period 1
[12] = route po, individual subjects 1-8, period 1 or 2, hydrochloride, dosing period 2

Chain of glycine oxidase from Bacillus subtilis (O31616 whole entry): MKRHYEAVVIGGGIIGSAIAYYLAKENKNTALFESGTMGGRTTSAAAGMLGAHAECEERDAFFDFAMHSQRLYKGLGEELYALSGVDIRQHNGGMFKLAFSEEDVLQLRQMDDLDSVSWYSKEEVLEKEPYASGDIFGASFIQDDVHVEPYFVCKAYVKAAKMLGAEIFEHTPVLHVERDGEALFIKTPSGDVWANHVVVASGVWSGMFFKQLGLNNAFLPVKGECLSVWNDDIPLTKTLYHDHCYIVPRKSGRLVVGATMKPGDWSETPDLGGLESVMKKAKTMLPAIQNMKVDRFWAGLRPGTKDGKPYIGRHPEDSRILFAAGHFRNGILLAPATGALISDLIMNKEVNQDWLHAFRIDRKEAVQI

Structure (SMILES): NC(=O)C(N)O (stereo not drawn) [AlphaHGA, α-Hydroxy-glycinamide hydrochloride]
- CC50 [1]: 372 ± 107 µM
- CC50 at 96 hr (in vitro): 606 ± 23 µM
- cumulative recovery of the dose in the urine over 24 hr, mean ([2]; IV administration): 63.7
- cumulative recovery of the dose in the urine over 24 hr ([2]; IV administration): 35-100%
- cumulative recovery of the dose in the urine over 24 hr ([2]; oral administration): 34-100%
- AUCTmax ([2]; Period 1, Max): 748180 fmol·h
- AUClast ([2]; Period 1, Max): 2934335 fmol·h
- Dlast ([2]; Period 1, Max): 41355 fmol
- Dmax ([2]; Period 1, Max): 374090 fmol
- AUCTmax ([2]; Period 1, Mean): 654984 fmol·h
- AUClast ([2]; Period 1, Mean): 2575235 fmol·h
- Dlast ([2]; Period 1, Mean): 29774 fmol
- Dmax ([2]; Period 1, Mean): 327492 fmol
- AUCTmax ([2]; Period 1, Min): 459180 fmol·h
- AUClast ([2]; Period 1, Min): 2239453 fmol·h
- Dlast ([2]; Period 1, Min): 19395 fmol
- Dmax ([2]; Period 1, Min): 229590 fmol
- AUCTmax ([2]; Period 2, Max): 1882171 fmol·h
- AUClast ([2]; Period 2, Max): 6993866 fmol·h
- Dlast ([2]; Period 2, Max): 133040 fmol
- Dmax ([2]; Period 2, Max): 941085 fmol
- AUCTmax ([2]; Period 2, Mean): 1437891 fmol·h
- AUClast ([2]; Period 2, Mean): 6007590 fmol·h
- Dlast ([2]; Period 2, Mean): 98450 fmol
- Dmax ([2]; Period 2, Mean): 718945 fmol
- AUCTmax ([2]; Period 2, Min): 1207722 fmol·h
- AUClast ([2]; Period 2, Min): 5220702 fmol·h
- Dlast ([2]; Period 2, Min): 48888 fmol
- Dmax ([2]; Period 2, Min): 603861 fmol
- AUCTmax ([2]; Route iv, Max): 1489152 fmol·h
- AUClast ([2]; Route iv, Max): 6540408 fmol·h
- Dlast ([2]; Route iv, Max): 114767 fmol
- Dmax ([2]; Route iv, Max): 744576 fmol
- AUCTmax ([2]; Route iv, Mean): 964045 fmol·h
- AUClast ([2]; Route iv, Mean): 4155954 fmol·h
- Dlast ([2]; Route iv, Mean): 61864 fmol
- Dmax ([2]; Route iv, Mean): 482022 fmol
- AUCTmax ([2]; Route iv, Min): 459180 fmol·h
- AUClast ([2]; Route iv, Min): 2368127 fmol·h
- Dlast ([2]; Route iv, Min): 19716 fmol
- Dmax ([2]; Route iv, Min): 229590 fmol
- AUCTmax ([2]; Route po, Max): 1882171 fmol·h
- AUClast ([2]; Route po, Max): 6993866 fmol·h
- Dlast ([2]; Route po, Max): 133040 fmol
- Dmax ([2]; Route po, Max): 941085 fmol
- AUCTmax ([2]; Route po, Mean): 1128830 fmol·h
- AUClast ([2]; Route po, Mean): 4426871 fmol·h
- Dlast ([2]; Route po, Mean): 66360 fmol
- Dmax ([2]; Route po, Mean): 564415 fmol
- AUCTmax ([2]; Route po, Min): 710260 fmol·h
- AUClast ([2]; Route po, Min): 2239453 fmol·h
- Dlast ([2]; Route po, Min): 19395 fmol
- Dmax ([2]; Route po, Min): 355130 fmol
- Tmax ([2]; route iv, individual subjects 1-8, period 1 or 2): 4 h
- Tfirst ([2]; route iv, individual subjects 1-8, period 1 or 2, dosing period 1): 4 h
- Tfirst ([2]; route iv, individual subjects 1-8, period 1 or 2, dosing period 2): 4 h
- AUCTmax [2, 7]: 684594 fmol·h and 543376 fmol·h and 639322 fmol·h and 459180 fmol·h
- AUClast [2, 7]: 2934335 fmol·h and 2573446 fmol·h and 2551259 fmol·h and 2368127 fmol·h
- Dlast [2, 7]: 32699 fmol and 40072 fmol and 41355 fmol and 19716 fmol
- Dmax [2, 7]: 342297 fmol and 271688 fmol and 319661 fmol and 229590 fmol
- Tlast [2, 7]: 24 h
- AUCTmax [2, 8]: 1207722 fmol·h and 1479193 fmol·h and 1489152 fmol·h and 1209818 fmol·h
- AUClast [2, 8]: 5505102 fmol·h and 5554250 fmol·h and 6540408 fmol·h and 5220702 fmol·h
- Dlast [2, 8]: 48888 fmol and 88098 fmol and 109317 fmol and 114767 fmol
- Dmax [2, 8]: 603861 fmol and 739597 fmol and 744576 fmol and 604909 fmol
- Tlast [2, 8]: 24 hr (3×) and 16 hr
- Tmax ([2]; route po, individual subjects 1-8, period 1 or 2): 4 h
- Tfirst [2, 9]: 4 h
- Tlast [2, 9]: 24 h
- Tfirst [2, 10]: 4 h
- Tlast [2, 10]: 24 h
- AUCTmax [2, 11]: 727839 fmol·h and 710260 fmol·h and 727119 fmol·h and 748180 fmol·h
- AUClast [2, 11]: 2696170 fmol·h and 2239453 fmol·h and 2618588 fmol·h and 2620500 fmol·h
- Dlast [2, 11]: 22280 fmol and 30936 fmol and 19395 fmol and 31737 fmol
- Dmax [2, 11]: 363920 fmol and 355130 fmol and 363559 fmol and 374090 fmol
- AUCTmax [2, 12]: 1882171 fmol·h and 1326533 fmol·h and 1425912 fmol·h and 1482625 fmol·h
- AUClast [2, 12]: 6993866 fmol·h and 6127092 fmol·h and 6093252 fmol·h and 6026045 fmol·h
- Dlast [2, 12]: 80465 fmol and 133040 fmol and 109798 fmol and 103226 fmol
- Dmax [2, 12]: 941085 fmol and 663266 fmol and 712956 fmol and 741313 fmol

Structure (SMILES): NCC(N)=O [G-NH2, glycinamide]
- CC50 (MT-4 cells): > 2000 µM
- CC50 (CEM cells [3]): > 2000 µM
- EC50 (CEM cells [3]): > 2000 µM
- no cytotoxicity at concentrations as high as (CEM cells [3]): 1500 to 2000 µM
- conversion of G-NH2 to Metabolite X [4]: unable to convert

Structure (SMILES): NCC(=O)N1CCC[C@H]1C(=O)NCC(N)=O [GPG-NH2, glycylprolylglycinamide] (H-Gly-Pro-Gly-NH2)
- EC50 [5]: > 2000 µM
- no cytotoxicity at concentrations as high as (CEM cells [6]): 1500 to 2000 µM
